Read-outs that look alike come from different tables or passages of the source.
Tests used:
androgen receptor = biological target: T1, androgen receptor (Homo sapiens, UniProt P10275, T878A); assay: PSA(6.1 kb)-luciferase reporter assay in LNCaP cells induced with R1881; assay type: cell-based
T1 construct: LNCaP cells express endogenous AR; endogenous in cells; host or cells: LNCaP
T1 sequence (P10275 1-920 T878A): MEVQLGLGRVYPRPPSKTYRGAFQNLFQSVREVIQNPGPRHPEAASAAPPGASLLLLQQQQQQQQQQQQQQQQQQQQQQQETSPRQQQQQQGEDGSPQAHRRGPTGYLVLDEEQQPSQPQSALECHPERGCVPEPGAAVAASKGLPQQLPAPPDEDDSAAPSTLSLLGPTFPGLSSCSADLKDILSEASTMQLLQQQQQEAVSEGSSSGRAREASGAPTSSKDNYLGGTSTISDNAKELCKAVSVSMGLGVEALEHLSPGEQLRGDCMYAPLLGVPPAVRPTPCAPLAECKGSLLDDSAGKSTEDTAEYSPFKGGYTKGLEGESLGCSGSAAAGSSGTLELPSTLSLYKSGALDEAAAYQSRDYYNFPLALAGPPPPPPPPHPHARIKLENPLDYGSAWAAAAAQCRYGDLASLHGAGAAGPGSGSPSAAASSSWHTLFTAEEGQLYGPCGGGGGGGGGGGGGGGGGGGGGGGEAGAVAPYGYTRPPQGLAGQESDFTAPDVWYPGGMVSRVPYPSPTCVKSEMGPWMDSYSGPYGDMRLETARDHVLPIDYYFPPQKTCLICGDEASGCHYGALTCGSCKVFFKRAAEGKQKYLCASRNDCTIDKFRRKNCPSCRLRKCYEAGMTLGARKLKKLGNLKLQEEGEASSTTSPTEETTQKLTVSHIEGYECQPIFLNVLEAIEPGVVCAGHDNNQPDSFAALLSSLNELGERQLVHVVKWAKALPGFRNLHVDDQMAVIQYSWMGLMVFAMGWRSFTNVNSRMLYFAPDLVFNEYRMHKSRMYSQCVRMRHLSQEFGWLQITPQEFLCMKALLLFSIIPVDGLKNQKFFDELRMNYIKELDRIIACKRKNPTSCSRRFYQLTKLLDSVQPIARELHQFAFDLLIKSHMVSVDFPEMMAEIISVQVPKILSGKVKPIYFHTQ
Description: LNCaP cells were employed for experiments because they are well-differentiated human prostate cancer cells in which ligand-dependent and ligand-independent activation of AR by FSK has been characterized (Nazareth et al 1996 J. Biol. Chem. 271, 19900-19907; and Sadar 1999 J Biol. Chem. 274, 7777-7783). LNCaP cells express endogenous AR and secrete prostate-specific antigen (PSA) (Horoszewicz et al 1983 Cancer Res. 43, 1809-1818). LNCaP cells can be grown either as monolayers in cell culture or as tumors in the well-characterized xenograft model that progresses to castration-resistant prostate cancer (CRPC) in castrated hosts (Sato et al 1996 J. Steroid Biochem. Mol. Biol. 58, 139-146; Gleave et al 1991 Cancer Res. 51, 3753-3761; Sato et al 1997 Cancer Res. 57, 1584-1589; and Sadar et al 2002 Mol. Cancer Ther. 1(8), 629-637). R1881 (a synthetic androgen) is employed since it is stable and avoids problems associated with the labile physiological ligand dihydrotestosterone (DHT).
One well characterized ARE-driven reporter gene construct that has been used extensively is the PSA (6.1 kb) enhance/promoter which contains several AREs and is highly inducible by androgens as well as by FSK (Ueda et al 2002 A J. Biol. Chem. 277, 7076-7085).
LNCaP (2.4×10^4 cell/well) cells were seeded on 24-well plates overnight before transfection with PSA(6.1 kb)-luciferase plasmid (0.25 ug/well) in serum-free, red phenol-free media. The next day, cells were pre-treated with compounds of the disclosure for 1 hour before the addition of synthetic androgen, R1881 (1 nM) to trans activate the androgen receptor. After 48 h of incubation with R1881, the cells were harvested, and relative luciferase activity was determined as a read-out for androgen receptor transcriptional activity. Test compounds were added to the cells at various concentrations and activity for each treatment was normalized to the predicted maximal activity induction (in the absence of test compounds, vehicle only). Transfection experiments were performed using triplicate wells.
Further experiments, as outlined in Example 22, were conducted with LNCaP cells transfected with PSA-luciferase plasmid to evaluate the dose response of particular compounds of the disclosure.

LNCaP cells = assay: AlamarBlue proliferation assay, androgen-dependent proliferation of LNCaP cells in response to R1881; assay type: cell-based, human; details: 0.1 nM R1881, 3 days, FIG. 10
Description: Protocol: Proliferation assays using AlamarBlue, wherein the % androgen-dependent proliferation represents proliferation of LNCaP cells in response to R1881 compared to basal levels.
PC3 and LNCaP cells were plated in 96-well plates in respective media plus 0.5% FBS. […] Cell viability was measured using alamarBlue Cell Viability Assay (Invitrogen) following the manufacturer's protocol.

LNCaP xenografts = assay: LNCaP xenograft tumor volume in castrated NOD-SCID mice; assay type: in vivo
Description: Male NOD-SCID mice bearing subcutaneous tumors were castrated when tumor volume was approximately 100 mm3.
Tumors were measured using caliphers and the volume calculated by application of the formula (L×W×H)*0.5236.
Animals bearing LNCaP xenografts were dosed daily by oral gavage with 55.23 mg/kg body weight of Compound 7c or CMC/10% DMSO/Tween-20 vehicle control.
Tumors were measured using caliphers and the volume calculated by application of the formula (L×W×H)*0.5236Male

[1] = PSA-luc, mean, read-out: PSA-luc IC50s MEAN
[2] = LNCaP cells transfected with PSA-luciferase plasmid, R1881 1 nM, 48 h, data of FIG. 9, read-out: IC50 (μM + Standard Deviation)

| IC50 (androgen receptor; [1]) [µM] | IC50 (androgen receptor; [2]) [µM] | Structure (SMILES) | also measured |
| --- | --- | --- | --- |
| 12.1 | – | CC(C)(c1ccc(OC[C@H](O)CCl)cc1)c1ccc(OC[C@H](O)COC(=O)CN)cc1 [(S)-3-(4-(2-(4-((S)-3-chloro-2-hydroxypropoxy)phenyl)propan-2-yl)phenoxy)-2-hydroxypropyl 2-aminoacetate] | – |
| – | 25.6 | CC(=O)OC[C@@H](O)COc1ccc(C(C)(C)c2ccc(OC[C@H](O)CCl)cc2)cc1 [Compound 1c] | – |
| – | 11.6 | CC(=O)O[C@H](CCl)COc1ccc(C(C)(C)c2ccc(OC[C@H](O)CO)cc2)cc1 [Compound 3c] | – |
| 15.3 | – | CC(=O)OC[C@H](COc1ccc(C(C)(C)c2ccc(OC[C@H](O)CCl)cc2)cc1)OC(C)=O [Compound 4c, (S)-3-(4-(2-(4-((S)-3-chloro-2-hydroxypropoxy)phenyl)propan-2-yl)phenoxy)propane-1,2-diyl diacetate] | – |
| – | 9.8 | COC[C@H](O)COc1ccc(C(C)(C)c2ccc(OC[C@H](O)CCl)cc2)cc1 [Compound B, reference compound] | – |
| 26 | – | CC(=O)OC[C@H](COc1ccc(C(C)(C)c2ccc(OC[C@H]3CO3)cc2)cc1)OC(C)=O [Example 11, (S)-3-(4-(2-(4-((R)-oxiran-2-ylmethoxy)phenyl)propan-2-yl)phenoxy)propane-1,2-diyl diacetate] | – |
| 60.2 | – | CC(C)(c1ccc(OC[C@@H](CCl)OC(=O)CCC(=O)O)cc1)c1ccc(OC[C@@H](COC(=O)CCC(=O)O)OC(=O)CCC(=O)O)cc1 [Example 13, (S)-3-(4-(2-(4-((S)-3-chloro-2-hydroxypropoxy)phenyl)propan-2-yl)phenoxy)propane-1,2-diol trisuccinate] | – |

| Structure (SMILES) | IC50 (androgen receptor; [1]) [µM] | IC50 (androgen receptor; [2]) [µM] | also measured |
| --- | --- | --- | --- |
| CC(=O)OC[C@H](COc1ccc(C(C)(C)c2ccc(OC[C@@H](CCl)OC(C)=O)cc2)cc1)OC(C)=O [Compound 7c, (S)-3-(4-(2-(4-((S)-2-acetoxy-3-chloropropoxy)phenyl)propan-2-yl)phenoxy)propane-1,2-diyl diacetate] | – | 8.81 | potency in proliferation assay relative to active compound (compound A) (LNCaP cells): twice as potent; tumor volume (LNCaP xenografts; Example 25, daily oral gavage, 10% DMSO/corn oil vehicle control, FIG. 11): effective at reducing tumor volume; tumor volume reduction compared with compound A (LNCaP xenografts; Example 25, daily oral gavage, FIG. 11): more effective than its active compound; tumor volume (LNCaP xenografts; Example 26, 55.23 mg/kg body weight daily by oral gavage, CMC/10% DMSO/Tween-20 vehicle control, FIG. 12): effective at reducing tumor volume |
| COC[C@@H](COc1ccc(C(C)(C)c2ccc(OC[C@@H](CCl)OC(C)=O)cc2)cc1)OC(C)=O [Example 21, (S)-1-(4-(2-(4-((S)-2-acetoxy-3-chloropropoxy)phenyl)propan-2-yl)phenoxy)-3-methoxypropan-2-yl acetate] | – | 8.07 | – |

Source: patent publication US20160068466A1, “ESTER DERIVATIVES OF ANDROGEN RECEPTOR MODULATORS AND METHODS FOR THEIR USE” (The University of British Columbia, priority 2013, published 2016)
